Assay results taken from ChEMBL document CHEMBL3785005, “Novel triazole hybrids of myrrhanone C, a natural polypodane triterpene: Synthesis, cytotoxic activity and cell based studies” (Eur J Med Chem, 2016).

Test system: HeLa
Experiment: Cytotoxicity against human HeLa cells assessed as cell viability after 48 hrs by MTT assay
Format: functional, cell-based
Settings: not given

Point of comparison: CC(C)=CCC/C(C)=C/CC/C(C)=C/CC[C@@H]1[C@@]2(C)CC/C(=N\OCc3cn(-c4ccccc4C#N)nn3)C(C)(C)[C@@H]2CC[C@@]1(C)O, IC50 21.2 µM. Against it:
- CC(C)=CCC/C(C)=C/CC/C(C)=C/CC[C@@H]1[C@@]2(C)CC/C(=N\OCc3cn(-c4ccc(Cl)cc4)nn3)C(C)(C)[C@@H]2CC[C@@]1(C)O — within 1.5-fold, 14.8 µM
- CC(C)=CCC/C(C)=C/CC/C(C)=C/CC[C@@H]1[C@@]2(C)CCC(=O)C(C)(C)[C@@H]2CC[C@@]1(C)O — within 1.5-fold, 18.3 µM
- CC(C)=CCC/C(C)=C/CC/C(C)=C/CC[C@@H]1[C@@]2(C)C/C(=C\c3ccc(OCc4cn(-c5cccc(C(F)(F)F)c5)nn4)cc3)C(=O)C(C)(C)[C@@H]2CC[C@@]1(C)O — within 1.5-fold, 17.3 µM
- CC(C)=CCC/C(C)=C/CC/C(C)=C/CC[C@@H]1[C@@]2(C)CC/C(=N\OCc3cn(-c4cccc(Br)c4)nn3)C(C)(C)[C@@H]2CC[C@@]1(C)O — within 1.5-fold, 15.7 µM
- CC(C)=CCC/C(C)=C/CC/C(C)=C/CC[C@@H]1[C@@]2(C)CC/C(=N\OCc3cn(-c4cccc([N+](=O)[O-])c4)nn3)C(C)(C)[C@@H]2CC[C@@]1(C)O — within 1.5-fold, 18.4 µM
- CC(C)=CCC/C(C)=C/CC/C(C)=C/CC[C@@H]1[C@@]2(C)C/C(=C\c3ccc(OCc4cn(-c5ccccc5C#N)nn4)cc3)C(=O)C(C)(C)[C@@H]2CC[C@@]1(C)O — 4.7-fold higher, 100 µM

Test system: MCF7
Experiment: Cytotoxicity against human MCF7 cells assessed as cell viability after 48 hrs by MTT assay
Format: functional, cell-based
Settings: MCF7, 48 h

Point of comparison: CC(C)=CCC/C(C)=C/CC/C(C)=C/CC[C@@H]1[C@@]2(C)CC/C(=N\OCc3cn(-c4ccc(Cl)cc4)nn3)C(C)(C)[C@@H]2CC[C@@]1(C)O, IC50 12.4 µM. Against it:
- CC(C)=CCC/C(C)=C/CC/C(C)=C/CC[C@@H]1[C@@]2(C)CCC(=O)C(C)(C)[C@@H]2CC[C@@]1(C)O — within 1.5-fold, 16.2 µM
- CC(C)=CCC/C(C)=C/CC/C(C)=C/CC[C@@H]1[C@@]2(C)C/C(=C\c3ccc(OCc4cn(-c5cccc(C(F)(F)F)c5)nn4)cc3)C(=O)C(C)(C)[C@@H]2CC[C@@]1(C)O — within 1.5-fold, 13.8 µM
- CC(C)=CCC/C(C)=C/CC/C(C)=C/CC[C@@H]1[C@@]2(C)CC/C(=N\OCc3cn(-c4ccccc4C#N)nn3)C(C)(C)[C@@H]2CC[C@@]1(C)O — 2-fold higher, 24.9 µM
- CC(C)=CCC/C(C)=C/CC/C(C)=C/CC[C@@H]1[C@@]2(C)CC/C(=N\OCc3cn(-c4cccc(Br)c4)nn3)C(C)(C)[C@@H]2CC[C@@]1(C)O — 2-fold higher, 24.8 µM
- CC(C)=CCC/C(C)=C/CC/C(C)=C/CC[C@@H]1[C@@]2(C)CC/C(=N\OCc3cn(-c4cccc([N+](=O)[O-])c4)nn3)C(C)(C)[C@@H]2CC[C@@]1(C)O — 1.7-fold higher, 20.7 µM
- CC(C)=CCC/C(C)=C/CC/C(C)=C/CC[C@@H]1[C@@]2(C)C/C(=C\c3ccc(OCc4cn(-c5ccccc5C#N)nn4)cc3)C(=O)C(C)(C)[C@@H]2CC[C@@]1(C)O — 2.4-fold higher, 29.9 µM

Test system: not listed separately
Experiment: Cytotoxicity against human DU145 cells assessed as cell viability after 48 hrs by MTT assay
Format: functional, cell-based
Settings: DU-145, 48 h

Point of comparison: CC(C)=CCC/C(C)=C/CC/C(C)=C/CC[C@@H]1[C@@]2(C)CCC(=O)C(C)(C)[C@@H]2CC[C@@]1(C)O, IC50 13.2 µM. Against it:
- CC(C)=CCC/C(C)=C/CC/C(C)=C/CC[C@@H]1[C@@]2(C)CC/C(=N\OCc3cn(-c4ccc(Cl)cc4)nn3)C(C)(C)[C@@H]2CC[C@@]1(C)O — within 1.5-fold, 16.2 µM
- CC(C)=CCC/C(C)=C/CC/C(C)=C/CC[C@@H]1[C@@]2(C)C/C(=C\c3ccc(OCc4cn(-c5cccc(C(F)(F)F)c5)nn4)cc3)C(=O)C(C)(C)[C@@H]2CC[C@@]1(C)O — within 1.5-fold, 9.33 µM
- CC(C)=CCC/C(C)=C/CC/C(C)=C/CC[C@@H]1[C@@]2(C)CC/C(=N\OCc3cn(-c4ccccc4C#N)nn3)C(C)(C)[C@@H]2CC[C@@]1(C)O — 1.9-fold higher, 25.1 µM
- CC(C)=CCC/C(C)=C/CC/C(C)=C/CC[C@@H]1[C@@]2(C)CC/C(=N\OCc3cn(-c4cccc(Br)c4)nn3)C(C)(C)[C@@H]2CC[C@@]1(C)O — within 1.5-fold, 14.6 µM
- CC(C)=CCC/C(C)=C/CC/C(C)=C/CC[C@@H]1[C@@]2(C)CC/C(=N\OCc3cn(-c4cccc([N+](=O)[O-])c4)nn3)C(C)(C)[C@@H]2CC[C@@]1(C)O — within 1.5-fold, 17.4 µM
- CC(C)=CCC/C(C)=C/CC/C(C)=C/CC[C@@H]1[C@@]2(C)C/C(=C\c3ccc(OCc4cn(-c5ccccc5C#N)nn4)cc3)C(=O)C(C)(C)[C@@H]2CC[C@@]1(C)O — 1.9-fold higher, 25.1 µM

Test system: HepG2
Experiment: Cytotoxicity against human HepG2 cells assessed as cell viability after 48 hrs by MTT assay
Format: functional, cell-based
Settings: HepG2, 48 h

Point of comparison: CC(C)=CCC/C(C)=C/CC/C(C)=C/CC[C@@H]1[C@@]2(C)CCC(=O)C(C)(C)[C@@H]2CC[C@@]1(C)O, IC50 26.6 µM. Against it:
- CC(C)=CCC/C(C)=C/CC/C(C)=C/CC[C@@H]1[C@@]2(C)CC/C(=N\OCc3cn(-c4ccc(Cl)cc4)nn3)C(C)(C)[C@@H]2CC[C@@]1(C)O — within 1.5-fold, 19.9 µM
- CC(C)=CCC/C(C)=C/CC/C(C)=C/CC[C@@H]1[C@@]2(C)C/C(=C\c3ccc(OCc4cn(-c5cccc(C(F)(F)F)c5)nn4)cc3)C(=O)C(C)(C)[C@@H]2CC[C@@]1(C)O — within 1.5-fold, 27.6 µM
- CC(C)=CCC/C(C)=C/CC/C(C)=C/CC[C@@H]1[C@@]2(C)CC/C(=N\OCc3cn(-c4ccccc4C#N)nn3)C(C)(C)[C@@H]2CC[C@@]1(C)O — within 1.5-fold, 21.9 µM
- CC(C)=CCC/C(C)=C/CC/C(C)=C/CC[C@@H]1[C@@]2(C)CC/C(=N\OCc3cn(-c4cccc(Br)c4)nn3)C(C)(C)[C@@H]2CC[C@@]1(C)O — within 1.5-fold, 39.8 µM
- CC(C)=CCC/C(C)=C/CC/C(C)=C/CC[C@@H]1[C@@]2(C)CC/C(=N\OCc3cn(-c4cccc([N+](=O)[O-])c4)nn3)C(C)(C)[C@@H]2CC[C@@]1(C)O — within 1.5-fold, 22 µM
- CC(C)=CCC/C(C)=C/CC/C(C)=C/CC[C@@H]1[C@@]2(C)C/C(=C\c3ccc(OCc4cn(-c5ccccc5C#N)nn4)cc3)C(=O)C(C)(C)[C@@H]2CC[C@@]1(C)O — 2.4-fold higher, 63.1 µM

Test system: A549
Experiment: Cytotoxicity against human A549 cells assessed as cell viability after 48 hrs by MTT assay
Format: functional, cell-based
Settings: A549, 48 h

Point of comparison: CC(C)=CCC/C(C)=C/CC/C(C)=C/CC[C@@H]1[C@@]2(C)CC/C(=N\OCc3cn(-c4cccc(Br)c4)nn3)C(C)(C)[C@@H]2CC[C@@]1(C)O, IC50 11.7 µM. Against it:
- CC(C)=CCC/C(C)=C/CC/C(C)=C/CC[C@@H]1[C@@]2(C)CC/C(=N\OCc3cn(-c4ccc(Cl)cc4)nn3)C(C)(C)[C@@H]2CC[C@@]1(C)O — within 1.5-fold, 12.3 µM
- CC(C)=CCC/C(C)=C/CC/C(C)=C/CC[C@@H]1[C@@]2(C)CCC(=O)C(C)(C)[C@@H]2CC[C@@]1(C)O — within 1.5-fold, 12 µM
- CC(C)=CCC/C(C)=C/CC/C(C)=C/CC[C@@H]1[C@@]2(C)C/C(=C\c3ccc(OCc4cn(-c5cccc(C(F)(F)F)c5)nn4)cc3)C(=O)C(C)(C)[C@@H]2CC[C@@]1(C)O — 2-fold higher, 23.2 µM
- CC(C)=CCC/C(C)=C/CC/C(C)=C/CC[C@@H]1[C@@]2(C)CC/C(=N\OCc3cn(-c4ccccc4C#N)nn3)C(C)(C)[C@@H]2CC[C@@]1(C)O — 1.7-fold higher, 19.9 µM
- CC(C)=CCC/C(C)=C/CC/C(C)=C/CC[C@@H]1[C@@]2(C)CC/C(=N\OCc3cn(-c4cccc([N+](=O)[O-])c4)nn3)C(C)(C)[C@@H]2CC[C@@]1(C)O — within 1.5-fold, 14.8 µM
- CC(C)=CCC/C(C)=C/CC/C(C)=C/CC[C@@H]1[C@@]2(C)C/C(=C\c3ccc(OCc4cn(-c5ccccc5C#N)nn4)cc3)C(=O)C(C)(C)[C@@H]2CC[C@@]1(C)O — 5.3-fold higher, 61.6 µM
